{"source": "patent EP1649856A2", "about": "“Use of pimecrolimus for selective immunomodulation” (Novartis AG, priority 2001, dated 2002)", "key": {"[1]": {"tested_on": "allergic contact dermatitis (ACD)", "test": "Mouse model of allergic contact dermatitis (ACD)", "format": "in vivo", "settings": "oral, same doses"}, "blood cells": {"tested_on": "blood cells", "settings": "30 mg b.i.d. oral", "experimental": "Pimecrolimus was evaluated as treatment for psoriasis using an oral dose of 60 mg (30 mg b.i.d) during a 4-week clinical study. The cohort included 10 patients; 8 received the treatment and 2 received a placebo. Blood samples were collected before the first administration to establish the gene expression baseline and on days 13 or 14 after treatment with pimecrolimus or placebo and submitted to gene expression analysis in order to gain insights into the mechanisms of action of the compound.\nThe RNA from blood samples drawn from each patient in the study was extracted and tested on individual DNA microarrays, thus allowing, for each patient, a comparison of gene expression before and after pimecrolimus treatment. […] Genes that were consistently modulated were sorted in functional categories."}, "in vivo": {"test": "in vivo", "design": "species or system rats", "description": "In another study designed to explore the differences between pimecrolimus and FK506 and to determine whether these differences might be associated with a different tissue distribution, the exposure to pimecrolimus and FK506 in various organs after oral administration were measured. Animals received 2 oral doses of 25 mg/kg in an interval of 2 hours. […] Pimecrolimus was found consistently to have a higher skinlblood concentration ratio than FK506 (2 hours: 7.3 vs. 2.8; 6 hours: 13 vs. 1.6; 24 hours: 36 vs. 6.0). The AUC0-24h in skin calculated for pimecrolimus was twice as high as with FK506.\nThese distribution characteristics are relevant not only for oral, but also for topical application, as the compound enters systemic circulation after permeation through the skin."}, "[2]": {"tested_on": "mixed-lymphocyte reaction", "test": "mixed-lymphocyte reaction (MLR) assay", "format": "cell-based", "settings": "Mus musculus", "source_text": "In addition to the IL-2 reporter gene assay, the concentration of immunosuppressants, such as pimecrolimus and FK506 can be measured by the mixed-lymphocyte reaction (see Meo, The MLR in the Mouse\", Immunological Methods, Lefkovits and Pemis, Eds., p. 227 Academic Press, NY)."}, "pulmonary eosinophilia": {"tested_on": "pulmonary eosinophilia", "test": "Antigen-induced pulmonary eosinophilia in actively sensitized rats", "format": "in vivo, Brown Norway Rats", "settings": "given orally as a microemulsion or dissolved in Neoral placebo", "source_text": "Another study looked at the effects of oral administration of pimecrolimus on antigen-induced pulmonary eosinophilia in actively sensitized Brown Norway Rats."}, "[3]": {"tested_on": "allergic contact dermatitis (ACD)", "test": "Rat ACD model", "format": "in vivo"}, "[4]": {"tested_on": "systemic immune responses", "test": "Models of systemic immunosuppression (graft-versus-host reaction, antibody formation to sheep red blood cells, kidney transplantation)", "format": "in vivo, rats", "settings": "transplantation and vaccination models", "source_text": "Pimecrolimus (also called ASM981 and ELIDEL®) is an ascomycin macrolactam-derivative with anti-inflammatory properties, chemical name is 33-epichloro-33-desoxy-ascomycin. Pimecrolimus is an ascomycin macrolactam-derivative developed originally for topical and oral treatment of inflammatory skin diseases such as atopic dermatitis and psoriasis. Pimecrolimus binds to macrophilin-12 and inhibits the Ca-dependent phosphatase calcineurin. As a consequence, it inhibits T cell activation and blocks the transcription and release of both Th1 and Th2 inflammatory cytokines. […] Tachyphylaxis has not been observed."}, "[5]": {"tested_on": "SCID mice reconstituted with CD4^+CD45RB^HI T cells", "test": "SCID-IBD mouse model, delayed treatment of established IBD", "format": "in vivo", "settings": "100 mg/kg/day p.o. started after 7, 14 or 21 days, until 41 days", "description": "In order to determine if pimecrolimus is also effective once IBD is established, SCID mice were treated with pimecrolimus at a dose level of 100 mg/kg/day at days 7, 14 or 21 following the transfer of the disease causing CD4^+ T cells. The study was terminated after 41 days, i.e., the mice were treated for 33, 26 and 19 days, respectively.\nSCID mice were reconstituted with 2 x 10^5 CD4^+CD45RB^HI T cells and treatment with pimecrolimus (100 mg/kg/day p.o.) started after 7, 14 or 21 days and continued daily until 41 days. Treatment with the placebo formulation started after 7 days. BW was monitored once a week for the first 2 weeks and then twice weekly. Data are expressed as mean percent BW relative to the weight on day 0 ± s.e.m. for n = 9 (PBS), n = 8 (ASM(7d) & ASM(21d) and n = 7 (ASM(14d) and placebo) mice per group. PBS refers to the non-transferred mice which have been pooled with regard to percent BW values since no treatment dependent changes were found. p<0.01 relative to the placebo-treated group at 41 days.\nSCID mice were reconstituted with 2 x 10^5 CD4^+CD45RB^HI T cells and treatment with pimecrolimus (100 mg/kg/day p.o.) started after 7, 14 or 21 days and continued daily until 41 days. Treatment with the placebo formulation started after 7 days. On day 41, mice were killed and serum kept for haptoglobin assay. Data are expressed as mean haptoglobin (mg/mL) ± s.e.m. for n = 9 (PBS), n = 8 (ASM(7d)) and n = 7 (ASM(14d), ASM(21d) and placebo) mice per group. […]\nSCID mice were reconstituted with 2 x 10^5 CD4^+CD45RB^HI T cells and treatment with pimecrolimus (100 mg/kg/day p.o.) started after7, 14 or 21 days and continued daily until 41 days. […] Data are expressed as the mean neutrophil numbers, calculated from the percent positive cells and the total cell number per sample, ± s.e.m. for n mice (n in each bar) per group. p<0.05 calculated relative to the placebo-treated group."}, "promoter for human IL-2": {"tested_on": "promoter for human IL-2", "test": "IL-2 reporter gene assay", "format": "cell-based", "settings": "concentration required for 50% inhibition", "source_text": "This assay method is disclosed and enabled in U.S. Patent No. 5,897,990, which is hereby incorporated by reference in its entirety and for all purposes.\nThe cell line is preferentially a human T-cell or macrophage cell line, e.g., a Jurkat cell line, preferably selected for high native production of the desired gene product, for example, producing IL-2 in response to stimulation in the case of an IL-2 reporter gene assay. The reporter gene is any gene expressing a readily observable product, e.g., an enzyme marker such as β-galactosidase or luciferase, or any other suitable enzyme marker. For example, where the enzyme marker is β-galactosidase, the reporter gene is, e.g., a bacterial lacZ gene; where the enzyme marker is luciferase, the gene is, e.g., a Phorinus luciferase gene. Another suitable marker is the gene for the green fluorescent protein produced by the bioluminescent jellyfish, e.g., as described in Chalfie et al., Science, Vol. 263, pp. 802-805 (1994). The promoter gene is a promoter gene for a cytokine or protein for which transcription is stimulated or suppressed by the drug to be monitored.\nBlood samples from the patient are diluted, their effect on gene expression in the above described system is measured, and the assay is standardized using known concentrations of the immunosuppressive material."}, "[6]": {"test": "Clinical study of oral pimecrolimus in psoriasis patients (efficacy and safety)", "experimental": "A clinical study was initiated with an oral formulation of pimecrolimus to treat psoriatic patients. Pimecrolimus was evaluated as treatment for psoriasis using an oral dose of 60 mg (30 mg b.i.d) during a 4-week clinical study. The cohort included 10 patients; 8 received the treatment and 2 received a placebo.\nThe dose used in the study was 60 mg/day, given as 30 mg b.i.d. To make this dose the 20 mg tablets were cut in half using a special cutter (Tablettenteiler NR.96) so as to obtain 30 mg of pimecrolimus or a matched amount of placebo."}}, "note": "Entries after “also recorded” stand apart in the source; their conditions may differ.", "data": [{"smiles": "CC[C@@H]1/C=C(\\C)C[C@H](C)C[C@H](OC)[C@H]2O[C@@](O)(C(=O)C(=O)N3CCCC[C@H]3C(=O)O[C@H](/C(C)=C/[C@@H]3CC[C@H](Cl)[C@H](OC)C3)[C@H](C)[C@@H](O)CC1=O)[C@H](C)C[C@@H]2OC", "note": "[pimecrolimus, 33-epichloro-33-desoxy-ascomycin]", "values": [{"measurement": "efficacy compared with FK506", "setting": "[1]", "result": "equipotent"}, {"measurement": "toxic effect in the expression profile", "setting": "blood cells", "result": "No obvious toxic effect"}, {"measurement": "expression of genes involved in asthma and IBD (RANTES, GALECTIN-3, Thromboxane A2 receptor, Glutathione peroxidase)", "setting": "blood cells; days 13 or 14 vs baseline", "result": "specifically and significantly down-regulated"}, {"measurement": "expression of inflammatory mediators (Leukotriene A4 hydrolase, prostaglandin endoperoxide synthase)", "setting": "blood cells; days 13 or 14 vs baseline", "result": "strongly down regulate"}, {"measurement": "AUC0-24h in skin compared with FK506", "setting": "in vivo; 2 oral doses of 25 mg/kg", "result": "twice as high"}, {"measurement": "exposure in all other tissues, including blood, lymph nodes and kidney, compared with FK506", "setting": "in vivo; 2 oral doses of 25 mg/kg", "result": "lower"}, {"measurement": "Kp at 2 h", "setting": "in vivo; rat, skin, 2 oral doses of 25 mg/kg in an interval of 2 hours, 2 hours after the last dosing, read-out: skinlblood concentration ratio", "result": 7.3}, {"measurement": "Kp at 6 h", "setting": "in vivo; rat, skin, 2 oral doses of 25 mg/kg in an interval of 2 hours, 6 hours after the last dosing, read-out: skinlblood concentration ratio", "result": 13}, {"measurement": "Kp at 24 h", "setting": "in vivo; rat, skin, 2 oral doses of 25 mg/kg in an interval of 2 hours, 24 hours after the last dosing, read-out: skinlblood concentration ratio", "result": 36}, {"measurement": "IC50", "setting": "[2]", "result": 9, "unit": "nM"}, {"measurement": "antigen-induced pulmonary eosinophilia", "setting": "pulmonary eosinophilia", "result": "effective"}, {"measurement": "efficacy compared with FK506", "setting": "[3]; oral, same doses, rat ACD model", "result": "superior"}, {"measurement": "efficacy relative to oral CyA", "setting": "[3]; rat ACD (12.5 mg/kg pimecrolimus similar to 50 mg/kg CyA)", "result": 4, "unit": "fold"}, {"measurement": "systemic immunosuppressive effect compared to CyA and FK506", "setting": "[4]", "result": "only a low potential to impair systemic immune responses; also recorded: minimal immunosuppressive effects"}, {"measurement": "acute phase response (serum haptoglobin) in established IBD", "setting": "[5]", "result": "inhibits the ongoing acute phase response"}, {"measurement": "blood and spleen neutrophilia in established/ongoing colitis", "setting": "[5]", "result": "strongly inhibits"}, {"measurement": "loss of BW in established/ongoing colitis", "setting": "[5]", "result": "highly-effective in reversing the loss of BW"}, {"measurement": "IC50", "setting": "promoter for human IL-2", "result": 1.5, "unit": "nM"}, {"measurement": "clinical effect on psoriasis", "setting": "[6]; oral 60 mg (30 mg b.i.d), 4-week study, 8 treated patients", "result": "reduction of psoriasis"}, {"measurement": "tolerability in man", "setting": "[6]; oral dosing up to 60 mg (or 30 mg b.i.d.) over 28 days", "result": "well-tolerated"}]}]}
